The NIST ThermoML archive (doi:10.1021/je901020a)
Numbers after ± are expanded uncertainties.

Key:
[1] = refractive index (Na D-line) (dimensionless); xn = mol fraction of the nth substance listed; settings: 101 kPa, Liquid, Standard Abbe refractometry
[2] = xn = mol fraction of the nth substance listed; settings: 101 kPa, Liquid; for speed of sound: Pulse-echo method

C1CCCCCCC1 [cyclooctane] + Cc1cc(C)cc(C)c1
Settings | mass density, [2] [kg/m3] | refractive index, [1] | speed of sound, [2] [m/s]
298.15 K, x1 = 0.0496 | 858.9 ± 0.5 | 1.49453 ± 0.0007 | 1338 ± 2
298.15 K, x1 = 0.1026 | 856.8 ± 0.5 | 1.49198 ± 0.0007 | 1339 ± 2
298.15 K, x1 = 0.2035 | 852.7 ± 0.5 | 1.48725 ± 0.0007 | 1341 ± 2
298.15 K, x1 = 0.307 | 848.8 ± 0.5 | 1.48253 ± 0.0007 | 1345 ± 2
298.15 K, x1 = 0.4062 | 845.2 ± 0.5 | 1.47807 ± 0.0007 | 1349 ± 2
298.15 K, x1 = 0.5042 | 841.9 ± 0.5 | 1.47384 ± 0.0007 | 1354 ± 2
298.15 K, x1 = 0.598 | 839 ± 0.5 | 1.46995 ± 0.0007 | 1359 ± 2
298.15 K, x1 = 0.696 | 836.2 ± 0.5 | 1.46606 ± 0.0007 | 1366 ± 2
298.15 K, x1 = 0.8308 | 833.3 ± 0.5 | 1.46115 ± 0.0007 | 1376 ± 2
298.15 K, x1 = 0.8926 | 832.3 ± 0.5 | 1.45905 ± 0.0007 | 1381 ± 2
298.15 K, x1 = 0.9484 | 831.7 ± 0.5 | 1.45738 ± 0.0007 | 1386 ± 2
298.15 K, x1 = 1 | 831.5 ± 0.5 | 1.45598 ± 0.00061 | 1391 ± 2
313.15 K, x1 = 0.0517 | 846.6 ± 0.5 | 1.48694 ± 0.00063 | 1277 ± 2
313.15 K, x1 = 0.0872 | 845.2 ± 0.5 | 1.48532 ± 0.00063 | 1278 ± 2
313.15 K, x1 = 0.1842 | 841.3 ± 0.5 | 1.48082 ± 0.00063 | 1280 ± 2
313.15 K, x1 = 0.2935 | 837.2 ± 0.5 | 1.4759 ± 0.00064 | 1283 ± 2
313.15 K, x1 = 0.3891 | 833.8 ± 0.5 | 1.47166 ± 0.00066 | 1287 ± 2
313.15 K, x1 = 0.4882 | 830.4 ± 0.5 | 1.46743 ± 0.0007 | 1291 ± 2
313.15 K, x1 = 0.5857 | 827.5 ± 0.5 | 1.4634 ± 0.00076 | 1296 ± 2
313.15 K, x1 = 0.6847 | 824.6 ± 0.5 | 1.45952 ± 0.00084 | 1302 ± 2
313.15 K, x1 = 0.791 | 822.1 ± 0.5 | 1.45559 ± 0.00094 | 1309 ± 2
313.15 K, x1 = 0.8911 | 820.3 ± 0.5 | 1.45214 ± 0.001 | 1317 ± 2
313.15 K, x1 = 0.939 | 819.7 ± 0.6 | 1.45053 ± 0.0012 | 1321 ± 2
313.15 K, x1 = 1 | 819.2 ± 0.5 | 1.44877 ± 0.00061 | 1325 ± 2
